Series [1] is described as follows: Compound solubility in PBS (pH 7.4), LC-MS/MS. The method, then: • Test concentration: 100 μM (1% of DMSO) • Test systems: PBS (pH 7.4) • Incubation condition: shaken (1000 rpm) for 1 h at room temperature • Sample size: Duplicates (n=2) • Bioanalytical method: LC-MS/MS
Series [2] deals with C57BL/6 Diet Induced Obese (DIO) mice. Kind of series: Oral (P.O.) administration study in DIO mice: in vivo activity, body weights. Further details: species or system mouse. As to conditions: for change in vivo at 2 mg/kg: Mus musculus, po, difference of group mean, read-out: Body weight, %-Diff. The text has this: The purpose of this study was to assess test articles in the Diet Induced Obese (DIO) mouse.
Male C57BL/6 Diet Induced Obese (DIO) mice were received from Taconic. Animals were acclimated to housing conditions for at least 1 week prior to vehicle acclimation dosing. Animals were acclimated to oral gavage dosing with vehicle once daily for Days 11 through 14 of the predose phase.
At initiation of dosing, animals were 21 to 22 weeks old, and their body weights ranged from 29.8 to 40.1 g.
Dose formulations were administered by oral gavage once daily for 10 days at a dose volume of 2 mL/kg. Doses were based on the most recently recorded scheduled body weight.
Body weights were recorded daily on Days 11 through 14 of the predose phase. Body weights were collected for all animals daily during the dosing phase prior to dosing.
Descriptive statistics (n, mean, standard error of the mean, standard deviation) were completed. Additionally, one-way analysis of variance followed by Dunnett's post-hoc test were performed on body weight (cumulative body weight change), glucose (glucose percent change), and food consumption (cumulative food consumption). Area under the curve (for body weight, cumulative body weight change, daily body weight change, and food consumption) was computed for treatment groups. An appropriate comparison test, such as one-way analysis of variance and Dunnett's, was performed on the group means for the area under the curve computations. Any additional statistical analysis and interpretation of the results were the responsibility of the sponsor.

Setting [3] is: PBS (pH 7.4), pH 7.4, aqueous buffer, kinetic from dmso stock, Solubility (μM) Mean, Table 6-B, test concentration 100 μM (1% of DMSO), shaken (1000 rpm) 1 h at room temperature, n = 2.
Where [4] appears, read: PBS (pH 7.4), pH 7.4, aqueous buffer, kinetic from dmso stock, Solubility (μM), Table 6-D.
The mark [5] stands for this setting: pH 7.4, aqueous buffer, kinetic from dmso stock, Solubility (μM) Mean, Table 6-B; PBS (pH 7.4), test concentration 100 μM (1% of DMSO), shaken (1000 rpm) 1 h at room temperature, n = 2.
The mark [6] stands for this setting: pH 7.4, aqueous buffer, kinetic from dmso stock, Solubility (μM), Table 6-D; PBS (pH 7.4).

In brackets after ≈: the same amount, converted by molar mass. Several values for one entry are separate records, joined by “and”; a condition that tells them apart may be missing. Identical values can stand only once. Like-named read-outs stand apart in the source and are kept apart here.

With `CC1=C(O)C(=O)C=C2C1=CC=C1[C@@]2(C)CC[C@@]2(C)[C@@H]3C[C@](C)(CN4CCN(C)CC4)CC[C@]3(C)CC[C@]12C` [ERX1117], the figures for the solubility at 1 h in series [1] (setting [3]) and in series [1] (setting [4]) were 0.91 µM (≈ 0.472 µg/mL) and 0.914 µM (≈ 0.474 µg/mL), respectively.
On to `CC1=C(O)C(=O)C=C2C1=CC=C1[C@@]2(C)CC[C@@]2(C)[C@@H]3C[C@](C)(CO)CC[C@]3(C)CC[C@]12C` [ERX1010], for which the solubility in series [1] (setting [5]) is 0.64 µM (≈ 0.279 µg/mL); in series [1] (setting [6]), 0.644 µM (≈ 0.281 µg/mL).
Take `CC(C)NCC(O)COc1cccc2ccccc12` (stereo not shown) [Propranolol]: the solubility at 1 h in series [1] (setting [5]) is 97.5 µM (≈ 25.3 µg/mL); in series [1] (pH 7.4, aqueous buffer, kinetic from dmso stock, Solubility (μM) Mean, Table 6-C; PBS (pH 7.4), test concentration 100 μM (1% of DMSO), shaken (1000 rpm) 1 h at room temperature, n = 2), more than 100 µM; in series [1] (setting [6]), 97.5 µM (≈ 25.3 µg/mL).
Regarding `CC(=O)Oc1cc2c(c(C)c1OC(C)=O)C(SC(C)C)C=C1[C@@]2(C)CC[C@@]2(C)[C@@H]3C[C@](C)(CN(C)C)CC[C@]3(C)CC[C@]12C` (stereo partly shown) [ERX1115], the solubility at 1 h in series [1] (setting [3]) amounted to 0.56 µM (≈ 0.349 µg/mL); in series [1] (setting [4]), 0.557 µM (≈ 0.348 µg/mL).
On to `CC1=C(O)C(=O)C=C2C1=CC=C1[C@@]2(C)CC[C@@]2(C)[C@@H]3C[C@](C)(C(N)=O)CC[C@]3(C)CC[C@]12C` [ERX1006], for which the solubility in series [1] (setting [5]) came out at 1.15 µM (≈ 0.517 µg/mL); in series [1] (setting [6]), 1.15 µM (≈ 0.515 µg/mL). The “Body weight %-Diff” value in series [2] (2 mg/kg oral gavage once daily, dosing phase Day 1) was −1%; in series [2] (2 mg/kg oral gavage once daily, dosing phase Day 2), −2%; in series [2] (2 mg/kg oral gavage once daily, dosing phase Day 3) it was −1%; in series [2] (2 mg/kg oral gavage once daily, dosing phase Day 4), −2%; in series [2] (2 mg/kg oral gavage once daily, dosing phase Day 5) it was −4%; in series [2] (2 mg/kg oral gavage once daily, dosing phase Day 6), −3%. The “Body weight, Mean” value is reported as 34.1 g in series [2] (2 mg/kg oral gavage once daily, dosing phase Day 1, N 5); 33.9 g in series [2] (2 mg/kg oral gavage once daily, dosing phase Day 2, N 5); 33.4 g in series [2] (2 mg/kg oral gavage once daily, dosing phase Day 3, N 5); 32.8 g in series [2] (2 mg/kg oral gavage once daily, dosing phase Day 4, N 5); 32.6 g in series [2] (2 mg/kg oral gavage once daily, dosing phase Day 5, N 5); 32.5 g in series [2] (2 mg/kg oral gavage once daily, dosing phase Day 6, N 5). The “Body weight, Mean” value in series [2] (Day 7, DSNG phase, 2 mg/kg, male, N=5) is reported as 32.0 g; in series [2] (Day 8, DSNG phase, 2 mg/kg, male, N=5), 31.7 g; in series [2] (Day 9, DSNG phase, 2 mg/kg, male, N=5), 31.4 g; in series [2] (Day 10, DSNG phase, 2 mg/kg, male, N=5), 31.2 g; in series [2] (Day 11, DSNG phase, 2 mg/kg, male, N=5) it was 30.9 g. Further, the change in vivo at 2 mg/kg in series [2] (168 h, Day 7, DSNG phase, 2 mg/kg, male) is -4%; in series [2] (192 h, Day 8, DSNG phase, 2 mg/kg, male), -6%; in series [2] (216 h, Day 9, DSNG phase, 2 mg/kg, male) it was -5%; in series [2] (240 h, Day 10, DSNG phase, 2 mg/kg, male), -7%; in series [2] (264 h, Day 11, DSNG phase, 2 mg/kg, male), -9%. Moreover, the “Individual Body Weight, PRED 11” value in series [2] (individual male DIO mouse of the 2 mg/kg group, pre-dose phase day 11 (baseline)) is 37.6 g and 34.5 g and 32.2 g and 35.2 g and 36.7 g. The “Individual Body Weight, PRED 12” value in series [2] (individual male DIO mouse of the 2 mg/kg group, pre-dose phase day 12 (baseline)) was 38.0 g and 35.2 g and 32.7 g and 34.8 g and 36.8 g. In addition, in series [2] (individual male DIO mouse of the 2 mg/kg group, pre-dose phase day 13 (baseline)), the “Individual Body Weight, PRED 13” value was 37.4 g and 35.4 g and 32.5 g and 34.1 g and 36.3 g. Moreover, the “Individual Body Weight, PRED 14” value in series [2] (individual male DIO mouse of the 2 mg/kg group, pre-dose phase day 14 (baseline)) was 38.5 g and 35.4 g and 32.7 g and 34.3 g and 36.9 g. For the same molecule, in series [2] (individual male DIO mouse, 2 mg/kg, dosing phase day 1, 2 mg/kg), the “Individual Body Weight, DSNG 1” value is 35.7 g and 35.0 g and 32.7 g and 32.4 g and 34.9 g. For the same molecule, the “Individual Body Weight, DSNG 2” value in series [2] (individual male DIO mouse, 2 mg/kg, dosing phase day 2, 2 mg/kg) was 35.0 g and 35.6 g and 31.8 g (2×) and 35.2 g.
Take `CC(=O)N[C@]1(C)CC[C@]2(C)CC[C@]3(C)C4=CC(SC(=O)c5ccccc5)c5c(cc(OC(C)=O)c(OC(C)=O)c5C)[C@]4(C)CC[C@@]3(C)[C@@H]2C1` (stereo partly shown) [ERX1173]: the concentration in solution in series [1] (PBS (pH 7.4), pH 7.4, aqueous buffer, kinetic from dmso stock, Solubility (μM) Mean, Table 6-C, test concentration 100 μM (1% of DMSO), shaken (1000 rpm) 1 h at room temperature, n = 2) (solubility at 1 h) came to 1.74 µM (≈ 1.19 µg/mL).
Take `CC1=C(O)C(=O)C=C2C1=CC=C1[C@@]2(C)CC[C@@]2(C)[C@@H]3C[C@](C)(C(=O)NC(CO)CO)CC[C@]3(C)CC[C@]12C` [ERX1029]: the values for the solubility in series [1] (setting [5]) and in series [1] (setting [6]) were 1.61 µM (≈ 0.843 µg/mL) and 1.6 µM (≈ 0.841 µg/mL), respectively.
On to `CC1=C(O)C(=O)C=C2C1=CC=C1[C@@]2(C)CC[C@@]2(C)[C@@H]3C[C@](C)(C(=O)N4CC(O)C4)CC[C@]3(C)CC[C@]12C` [ERX1020], for which the solubility in series [1] (setting [5]) and in series [1] (setting [6]) was 0.54 µM (≈ 0.273 µg/mL) in each case.
For `CC(=O)Oc1cc2c(c(C)c1OC(C)=O)C(SC(C)C)C=C1[C@@]2(C)CC[C@@]2(C)[C@@H]3C[C@](C)(C(N)=O)CC[C@]3(C)CC[C@]12C` (stereo partly shown) [ERX1066], the solubility at 1 h in series [1] (setting [3]) came out at 0.63 µM (≈ 0.384 µg/mL); in series [1] (setting [4]) it was 0.627 µM (≈ 0.383 µg/mL).

A word on the solubility: it is the concentration that dissolves in the medium under given conditions.
